Experimental data: ChEMBL document CHEMBL2331321, “Design, synthesis, and biological evaluation of 3-aryl-3-hydroxy-1-phenylpyrrolidine derivatives as novel androgen receptor antagonists” (Bioorg Med Chem, 2013)

Key:
[1] = target: T1, Androgen receptor (Homo sapiens, UniProt P10275, T878A)
Description: Antagonist activity at Androgen receptor T877A mutant (unknown origin) expressed in human Cos-7 cells co-expressing pGL3-MMTV-luc vector assessed as luciferase activity by reporter gene assay

[2] = target: T1, Androgen receptor; remark: listed apart in the source
Description: Agonist activity at Androgen receptor T877A mutant in human LNCaP-hr cells assessed as prostate specific antigen secretion measured after 3 days by enzyme-immunoassay

[3] = target: T2, Androgen receptor (Homo sapiens, UniProt P10275)
T2 sequence (P10275 whole entry): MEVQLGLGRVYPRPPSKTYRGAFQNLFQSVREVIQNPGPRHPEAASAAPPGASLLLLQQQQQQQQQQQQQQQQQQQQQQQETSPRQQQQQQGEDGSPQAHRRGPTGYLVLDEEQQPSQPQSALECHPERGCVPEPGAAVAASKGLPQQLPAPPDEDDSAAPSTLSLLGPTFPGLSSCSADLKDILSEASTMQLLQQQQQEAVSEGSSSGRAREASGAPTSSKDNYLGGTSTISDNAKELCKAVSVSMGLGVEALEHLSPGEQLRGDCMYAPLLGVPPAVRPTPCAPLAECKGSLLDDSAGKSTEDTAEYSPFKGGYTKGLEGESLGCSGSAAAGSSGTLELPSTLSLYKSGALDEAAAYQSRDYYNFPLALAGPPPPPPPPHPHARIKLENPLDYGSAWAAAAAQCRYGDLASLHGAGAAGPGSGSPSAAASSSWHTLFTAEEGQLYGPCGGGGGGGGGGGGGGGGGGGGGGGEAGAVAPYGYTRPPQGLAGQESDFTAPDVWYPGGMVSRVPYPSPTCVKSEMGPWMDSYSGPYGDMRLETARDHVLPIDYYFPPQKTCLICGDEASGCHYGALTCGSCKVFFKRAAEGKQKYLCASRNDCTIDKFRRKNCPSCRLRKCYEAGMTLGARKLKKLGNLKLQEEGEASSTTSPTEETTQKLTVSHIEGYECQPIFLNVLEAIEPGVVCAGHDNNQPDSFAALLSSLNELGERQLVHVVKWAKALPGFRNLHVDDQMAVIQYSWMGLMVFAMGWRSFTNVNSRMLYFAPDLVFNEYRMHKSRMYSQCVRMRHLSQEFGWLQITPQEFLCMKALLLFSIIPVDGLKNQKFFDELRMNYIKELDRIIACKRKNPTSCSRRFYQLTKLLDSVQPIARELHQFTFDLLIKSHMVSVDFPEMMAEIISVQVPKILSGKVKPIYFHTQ
Description: Antagonist activity at wild type Androgen receptor (unknown origin) expressed in human Cos-7 cells co-expressing pGL3-MMTV-luc vector assessed as luciferase activity by reporter gene assay

[4] = target: T2, Androgen receptor; remark: listed apart in the source
Description: Agonist activity at wild type Androgen receptor in human LNCaP-hr cells assessed as prostate specific antigen secretion measured after 3 days by enzyme-immunoassay

[5] = target: T2, Androgen receptor; remark: listed apart in the source
Description: Inhibition of wild type Androgen receptor (unknown origin) expressed in Freestyle293F cells

[6] = target: T1, Androgen receptor; remark: listed apart in the source
Description: Inhibition of Androgen receptor T877A mutant (unknown origin) expressed in Freestyle293F cells

[7] = Antitumor activity against human LNCaP-hr cells in BALB/c mouse xenograft model assessed as plasma prostate specific antigen level at 100 mg/kg, po qd for 28 days by ELISA (reference value: 23.8 +/- 6.1 ng/ml); type: functional
[8] = Antitumor activity against human LNCaP-hr cells in BALB/c mouse xenograft model assessed as inhibition of tumor growth at 100 mg/kg, po qd for 28 days (reference value: 100%); type: functional
[9] = Half life in mouse plasma; type: ADME, cell-free
[10] = Antitumor activity against human LNCaP-hr cells in BALB/c mouse xenograft model assessed as inhibition of tumor growth at 30 mg/kg, po bid for 28 days (reference value: 100%); type: functional
[11] = AUC in mouse at 30 mg/kg, po; type: ADME, organism-based; parameters: dose 30 mg/kg, route oral; conditions: plasma
[12] = Antitumor activity against human LNCaP-hr cells in BALB/c mouse xenograft model assessed as plasma prostate specific antigen level at 30 mg/kg, po bid for 28 days by ELISA (reference value: 23.8 +/- 6.1 ng/ml); type: functional
[13] = Antitumor activity against human LNCaP-hr cells in BALB/c mouse xenograft model assessed as plasma prostate specific antigen level at 10 mg/kg, po bid for 28 days by ELISA (reference value: 23.8 +/- 6.1 ng/ml); type: functional
[14] = Antitumor activity against human LNCaP-hr cells in BALB/c mouse xenograft model assessed as inhibition of tumor growth at 10 mg/kg, po bid for 28 days (reference value: 100%); type: functional
[15] = Mean residence time in mouse at 30 mg/kg, po; type: ADME, organism-based; parameters: dose 30 mg/kg, route oral; conditions: in vivo

T1 sequence (P10275 whole entry T878A): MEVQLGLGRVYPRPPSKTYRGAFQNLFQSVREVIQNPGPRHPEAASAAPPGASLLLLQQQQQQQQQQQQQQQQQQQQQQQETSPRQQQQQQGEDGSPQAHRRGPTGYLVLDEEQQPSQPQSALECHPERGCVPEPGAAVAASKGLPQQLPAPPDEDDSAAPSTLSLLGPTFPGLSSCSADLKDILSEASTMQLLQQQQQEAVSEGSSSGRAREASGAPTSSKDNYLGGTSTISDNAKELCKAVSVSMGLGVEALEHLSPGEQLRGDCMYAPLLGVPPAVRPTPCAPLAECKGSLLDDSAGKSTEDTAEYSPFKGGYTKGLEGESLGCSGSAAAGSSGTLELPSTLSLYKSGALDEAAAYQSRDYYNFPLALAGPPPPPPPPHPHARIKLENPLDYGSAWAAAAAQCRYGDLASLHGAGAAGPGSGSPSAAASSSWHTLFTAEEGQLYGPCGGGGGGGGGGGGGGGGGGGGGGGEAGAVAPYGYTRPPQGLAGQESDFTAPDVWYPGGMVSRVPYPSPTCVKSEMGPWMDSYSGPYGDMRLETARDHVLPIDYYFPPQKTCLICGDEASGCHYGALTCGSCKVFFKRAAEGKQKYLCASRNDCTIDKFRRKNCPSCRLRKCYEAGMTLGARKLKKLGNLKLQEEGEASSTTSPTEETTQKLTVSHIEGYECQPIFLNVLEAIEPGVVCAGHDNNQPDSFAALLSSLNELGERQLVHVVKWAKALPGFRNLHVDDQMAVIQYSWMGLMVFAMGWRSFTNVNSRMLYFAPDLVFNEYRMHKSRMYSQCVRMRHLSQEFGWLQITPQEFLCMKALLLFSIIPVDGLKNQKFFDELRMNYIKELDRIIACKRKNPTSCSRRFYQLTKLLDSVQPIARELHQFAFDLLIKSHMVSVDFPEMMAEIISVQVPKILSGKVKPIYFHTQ

N#Cc1ccc(N2CCC(O)(Cc3ccccc3)C2)cc1Cl (configuration not stated)
IC50 [1]: 450 nM | EC50 [2]: 4800 nM | IC50 [3]: 1000 nM | EC50 [4]: > 10000 nM | IC50 [5]: 420 nM | IC50 [6]: 59 nM

CC(O)(CS(=O)(=O)c1ccc(F)cc1)C(=O)Nc1ccc(C#N)c(C(F)(F)F)c1 (configuration not stated) [BICALUTAMIDE]
Activity [7]: 45.6 ng/mL | T/C [8]: 191%

C[C@@](O)(CS(=O)(=O)c1ccc(F)cc1)C(=O)Nc1ccc(C#N)c(C(F)(F)F)c1 [(S)-BICALUTAMIDE]
half-life [9]: 19 h

CNC(=O)c1ccc([C@]2(O)CCN(c3ccc(C#N)c(Cl)c3)[C@H]2C)cc1
IC50 [1]: 10 nM | EC50 [2]: 10000 nM | IC50 [3]: 8.6 nM | EC50 [4]: > 10000 nM | IC50 [5]: 32 nM | IC50 [6]: 18 nM

CNC(=O)c1ccc([C@]2(O)CCN(c3ccc(C#N)c(Cl)c3)[C@H]2C)nc1
IC50 [1]: 100 nM | EC50 [2]: 5100 nM | IC50 [3]: 120 nM | EC50 [4]: > 10000 nM | IC50 [5]: 68 nM | IC50 [6]: 16 nM

CNC(=O)c1ccc([C@@]2(O)CCN(c3ccc(C#N)c(Cl)c3)[C@@H]2C)cn1
IC50 [1]: 1600 nM | EC50 [2]: > 10000 nM | IC50 [3]: 6400 nM | EC50 [4]: > 10000 nM | IC50 [5]: 1600 nM | IC50 [6]: 97 nM

C[C@@H]1N(c2ccc(C#N)c(Cl)c2)CC[C@@]1(O)c1ccc(C(N)=O)cc1
IC50 [1]: 9 nM | EC50 [2]: 10000 nM | IC50 [3]: 17 nM | EC50 [4]: > 10000 nM | IC50 [5]: 27 nM | IC50 [6]: 42 nM

C[C@@H]1N(c2ccc(C#N)c(Cl)c2)CC[C@@]1(O)c1ccc(F)cc1
IC50 [1]: > 10000 nM | EC50 [2]: 20 nM | IC50 [3]: 17 nM | EC50 [4]: > 10000 nM | IC50 [5]: 8 nM | IC50 [6]: 8.1 nM

CNC(=O)c1ccc([C@]2(O)CCN(c3ccc(C#N)c(OC)c3)[C@H]2C)cn1
IC50 [1]: 730 nM | IC50 [3]: 62 nM | IC50 [5]: 120 nM | IC50 [6]: 240 nM

CNC(=O)c1ccc([C@]2(O)CCN(c3ccc(C#N)c(Cl)c3)[C@H]2C)cn1
IC50 [1]: 99 nM | EC50 [2]: > 10000 nM | IC50 [3]: 25 nM | EC50 [4]: > 10000 nM | IC50 [5]: 44 nM | IC50 [6]: 100 nM

C[C@@H]1N(c2ccc(C#N)c(Cl)c2)CC[C@@]1(O)c1ccc(N2CCCC2=O)nc1
IC50 [1]: 160 nM | IC50 [3]: 11 nM | IC50 [5]: 13 nM | IC50 [6]: 87 nM

C[C@@H]1N(c2ccc(C#N)c(Cl)c2)CC[C@@]1(O)c1ccc(C(=O)N(C)C)nc1
IC50 [1]: 10000 nM | EC50 [2]: > 10000 nM | IC50 [3]: 1700 nM | EC50 [4]: > 10000 nM | IC50 [5]: 1100 nM | IC50 [6]: 3000 nM

N#Cc1ccc(N2CCC(O)C2)cc1Cl (configuration not stated)
IC50 [1]: > 10000 nM | EC50 [2]: 640 nM | IC50 [3]: 82 nM | EC50 [4]: 4700 nM | IC50 [5]: 120 nM | IC50 [6]: 30 nM

N#Cc1ccc(N2CCC(O)(c3ccc(F)cc3)C2)cc1Cl (racemic)
IC50 [1]: 65 nM | EC50 [2]: > 10000 nM | IC50 [3]: 68 nM | EC50 [4]: > 10000 nM | IC50 [5]: 180 nM | IC50 [6]: 36 nM

CNC(=O)c1ccc([C@]2(O)CCN(c3ccc(C#N)cc3)[C@H]2C)cn1
IC50 [1]: 1400 nM | IC50 [3]: 400 nM | IC50 [5]: 7600 nM | IC50 [6]: 5300 nM

C[C@](O)(CS(=O)(=O)c1ccc(F)cc1)C(=O)Nc1ccc(C#N)c(C(F)(F)F)c1 [(R)-BICALUTAMIDE]
half-life [9]: 101 h

CNC(=O)c1ccc([C@]2(O)CCN(c3ccc(C#N)c(F)c3)[C@H]2C)cn1
IC50 [1]: 1700 nM | T/C [10]: 18% | AUC [11]: 232 µg·h/mL | IC50 [3]: 290 nM | Activity [12]: 4.3 ng/mL | Activity [13]: 33 ng/mL | T/C [14]: 139% | MRT [15]: 4.07 h | IC50 [5]: 830 nM | IC50 [6]: 1700 nM

N#Cc1ccc(N2CCC(O)(c3ccccc3)C2)cc1Cl (racemic)
IC50 [1]: 250 nM | EC50 [2]: > 10000 nM | IC50 [3]: 380 nM | EC50 [4]: > 10000 nM | IC50 [5]: 370 nM | IC50 [6]: 130 nM
